From patent US12780800B1, “Triazole-pyridinyl substituted azacyclohexyl acetic acid compounds as LPA receptor antagonists” (Viva Star Biosciences Limited, priority 2021, dated 2022) come the findings set out here.

As a reminder, the IC50 is the concentration that inhibits the measured activity by half.

The target in the test is T1, LPA1 (Homo sapiens, UniProt Q92633).
T1 construct: ProLink (PK) beta-galactosidase enzyme-fragment tag; host or cells: CHO-K1
T1 sequence (Q92633 whole entry, the tested form may be a part): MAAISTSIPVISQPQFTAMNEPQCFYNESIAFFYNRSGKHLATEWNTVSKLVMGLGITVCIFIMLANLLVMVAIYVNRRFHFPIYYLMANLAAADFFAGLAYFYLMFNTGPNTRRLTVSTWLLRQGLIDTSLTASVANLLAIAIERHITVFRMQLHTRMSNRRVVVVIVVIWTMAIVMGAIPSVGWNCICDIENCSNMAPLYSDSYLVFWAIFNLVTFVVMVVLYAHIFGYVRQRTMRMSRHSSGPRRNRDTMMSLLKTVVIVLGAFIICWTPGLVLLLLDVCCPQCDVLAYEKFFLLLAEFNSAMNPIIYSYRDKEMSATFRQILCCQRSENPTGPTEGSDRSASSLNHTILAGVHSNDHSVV
The experiment in a line: LPA1 calcium flux assay (LPA1 functional antagonist assay). It is filed as cell-based. To be noted: PathHunter CHO-K1 EDG2 β-Arrestin cell line; calcium indicator dye; stimulated with EC80 concentration of LPA; FLIPR Tetra. In outline:
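The LPA1 antagonist readout was intracellular calcium flux, and IC50 values were calculated from it. Plates stood 30 min at RT after compound addition. Cells, grown overnight, had first taken up calcium dye over 45 min at 37 °C.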
A general note: Calcium assays in cells follow changes in intracellular calcium, usually with a dye or a luminescent sensor.
`CCc1nc(-c2nnn(C)c2Cn2cc(CC3CC3)nn2)ccc1N1C[C@@H](CC(=O)O)CC(F)(F)C1` [Example 131, (S)-2-(1-(6-(5-((4-(cyclopropylmethyl)-1H-1,2,3-triazol-1-yl)methyl)-1-methyl-1H-1,2,3-triazol-4-yl)-2-ethylpyridin-3-yl)-5,5-difluoropiperidin-3-yl)acetic acid]: the half-maximal inhibitory concentration (IC50) fell in the range of 100 to 500 nM.

As to `CCc1nc(-c2nnn(C)c2Cn2nncc2CC2CC2)ccc1N1C[C@@H](CC(=O)O)CC(F)(F)C1` [Example 132, (S)-2-(1-(6-(5-((5-(cyclopropylmethyl)-1H-1,2,3-triazol-1-yl)methyl)-1-methyl-1H-1,2,3-triazol-4-yl)-2-ethylpyridin-3-yl)-5,5-difluoropiperidin-3-yl)acetic acid], the IC50 is below 100 nM.

Take `Cc1nc(-c2nnn(C)c2Cn2cc(CC3CC3)nn2)ccc1N1C[C@@H](CC(=O)O)CC(F)(F)C1` [Example 133, (S)-2-(1-(6-(5-((4-(cyclopropylmethyl)-1H-1,2,3-triazol-1-yl)methyl)-1-methyl-1H-1,2,3-triazol-4-yl)-2-methylpyridin-3-yl)-5,5-difluoropiperidin-3-yl)acetic acid]: the IC50 was in the range of 100 to 500 nM.

With `CCc1nc(-c2cnn(C)c2Cn2nncc2CC2CC2)ncc1N1C[C@@H](CC(=O)O)CC(F)(F)C1` [Example 134, (S)-2-(1-(2-(5-((5-(cyclopropylmethyl)-1H-1,2,3-triazol-1-yl)methyl)-1-methyl-1H-pyrazol-4-yl)-4-ethylpyrimidin-5-yl)-5,5-difluoropiperidin-3-yl)acetic acid], the IC50 is 100 to 500 nM.

As for `CCc1nc(-c2cnn(C)c2Cn2cc(CC3CC3)nn2)ncc1N1C[C@@H](CC(=O)O)CC(F)(F)C1` [Example 135, (S)-2-(1-(2-(5-((4-(cyclopropylmethyl)-1H-1,2,3-triazol-1-yl)methyl)-1-methyl-1H-pyrazol-4-yl)-4-ethylpyrimidin-5-yl)-5,5-difluoropiperidin-3-yl)acetic acid], the IC50 was above 5000 nM.

For `CCc1nc(-c2cnn(C)c2Cn2ncc(CC3CC3)n2)ncc1N1C[C@@H](CC(=O)O)CC(F)(F)C1` [Example 136, (S)-2-(1-(2-(5-((4-(cyclopropylmethyl)-2H-1,2,3-triazol-2-yl)methyl)-1-methyl-1H-pyrazol-4-yl)-4-ethylpyrimidin-5-yl)-5,5-difluoropiperidin-3-yl)acetic acid], the IC50 lay within 100 to 500 nM.

`CCc1nc(-c2nnn(C)c2Cn2nnc(CC3CC3)n2)ccc1N1C[C@@H](CC(=O)O)CC(F)(F)C1` [Example 137, 2-[(3S)-1-[6-(5-{[5-(cyclopropylmethyl)-2H-1,2,3,4-tetrazol-2-yl]methyl}-1-methyl-1H-1,2,3-triazol-4-yl)-2-ethylpyridin-3-yl]-5,5-difluoropiperidin-3-yl]acetic acid]: the IC50 lay in the range of 100 to 500 nM.

As for `CCc1nc(-c2nnn(C)c2Cn2nnnc2CC2CC2)ccc1N1C[C@@H](CC(=O)O)CC(F)(F)C1` [Example 138, 2-[(3S)-1-[6-(5-{[5-(cyclopropylmethyl)-1H-1,2,3,4-tetrazol-1-yl]methyl}-1-methyl-1H-1,2,3-triazol-4-yl)-2-ethylpyridin-3-yl]-5,5-difluoropiperidin-3-yl]acetic acid], the IC50 lay within 100 to 500 nM.

`CCCN(C)C(=O)OCc1c(-c2ccc(N3C[C@@H](CC(=O)O)CC(F)(F)C3)c(C)n2)nnn1C` [Example 139, (S)-2-(5,5-difluoro-1-(2-methyl-6-(1-methyl-5-(((methyl(propyl)carbamoyl)oxy)methyl)-1H-1,2,3-triazol-4-yl)pyridin-3-yl)piperidin-3-yl)acetic acid]: the IC50 lay in the range of 100 to 500 nM.

For `Cc1nc(-c2nnn(C)c2COC(=O)N(C)CC2CC2)ccc1N1C[C@@H](CC(=O)O)CC(F)(F)C1` [Example 140, (S)-2-(1-(6-(5-((((cyclopropylmethyl)(methyl)carbamoyl)oxy)methyl)-1-methyl-1H-1,2,3-triazol-4-yl)-2-methylpyridin-3-yl)-5,5-difluoropiperidin-3-yl)acetic acid], the IC50 was in the range of 100 to 500 nM.

Regarding `CCc1nc(-c2nnn(C)c2COC(=O)N(C)CC2CC2)ccc1N1C[C@@H](CC(=O)O)CC(F)(F)C1` [Example 141, (S)-2-(1-(6-(5-((((cyclopropylmethyl)(methyl)carbamoyl)oxy)methyl)-1-methyl-1H-1,2,3-triazol-4-yl)-2-ethylpyridin-3-yl)-5,5-difluoropiperidin-3-yl)acetic acid], the half-inhibitory concentration (IC50) lay in the range of 100 to 500 nM.

For the molecule `Cc1nc(-c2nnn(C)c2COC(=O)N(C)C2CCC2)ccc1N1C[C@@H](CC(=O)O)CC(F)(F)C1` [Example 142, (S)-2-(1-(6-(5-(((cyclobutyl(methyl)carbamoyl)oxy)methyl)-1-methyl-1H-1,2,3-triazol-4-yl)-2-methylpyridin-3-yl)-5,5-difluoropiperidin-3-yl)acetic acid], the IC50 lay in the range of 100 to 500 nM.

Regarding `CCc1nc(-c2nnn(C)c2COC(=O)N(C)C2CCC2)ccc1N1C[C@@H](CC(=O)O)CC(F)(F)C1` [Example 143, (S)-2-(1-(6-(5-(((cyclobutyl(methyl)carbamoyl)oxy)methyl)-1-methyl-1H-1,2,3-triazol-4-yl)-2-ethylpyridin-3-yl)-5,5-difluoropiperidin-3-yl)acetic acid], the IC50 was below 100 nM.

In the case of `CCCN(C)C(=O)OCc1c(-c2ccc(N3CCC[C@H](CC(=O)O)C3)c(C)n2)nnn1C` [Example 144, (R)-2-(1-(2-methyl-6-(1-methyl-5-(((methyl(propyl)carbamoyl)oxy)methyl)-1H-1,2,3-triazol-4-yl)pyridin-3-yl)piperidin-3-yl)acetic acid], the IC50 was in the range of 500 to 5000 nM.

For `CCCN(C)C(=O)OCc1c(-c2ccc(N3CCC[C@H](CC(=O)O)C3)c(CC)n2)nnn1C` [Example 145, (R)-2-(1-(2-ethyl-6-(1-methyl-5-(((methyl(propyl)carbamoyl)oxy)methyl)-1H-1,2,3-triazol-4-yl)pyridin-3-yl)piperidin-3-yl)acetic acid], the 50% inhibitory concentration (IC50) was 500 to 5000 nM.

Turning to `CCCN(C)C(=O)OCc1c(-c2ccc(N3C[C@@H](CC(=O)O)CC(F)(F)C3)c(CC)n2)nnn1C` [Example 146, (S)-2-(1-(2-ethyl-6-(1-methyl-5-(((methyl(propyl)carbamoyl)oxy)methyl)-1H-1,2,3-triazol-4-yl)pyridin-3-yl)-5,5-difluoropiperidin-3-yl)acetic acid], the half-maximal inhibitory concentration (IC50) was above 5000 nM.

As for `CCc1nc(-c2nnn(C)c2CNc2nccc(C3CC3)n2)ccc1CN1CC(C(=O)O)CC(F)(F)C1` (stereo not drawn) [Example 151, 1-((6-(5-(((4-cyclopropylpyrimidin-2-yl)amino)methyl)-1-methyl-1H-1,2,3-triazol-4-yl)-2-ethylpyridin-3-yl)methyl)-5,5-difluoropiperidine-3-carboxylic acid], the IC50 was 500 to 5000 nM.

With `CCCN(C)C(=O)OCc1c(-c2ccc(CN3CCOC(C(=O)O)C3)c(C)n2)nnn1C` (stereo not drawn) [Example 166, 4-((2-methyl-6-(1-methyl-5-(((methyl (propyl)carbamoyl)oxy)methyl)-1H-1,2,3-triazol-4-yl)pyridin-3-yl)methyl)morpholine-2-carboxylic acid], the IC50 was above 5000 nM.

With `Cn1nnc(-c2ccc(N3CCC[C@H](CC(=O)O)C3)c(C(F)F)n2)c1Cn1ncc(CC2CC2)n1` [Example 167, (R)-2-(1-(6-(5-((4-(cyclopropylmethyl)-2H-1,2,3-triazol-2-yl)methyl)-1-methyl-1H-1,2,3-triazol-4-yl)-2-(difluoromethyl)pyridin-3-yl)piperidin-3-yl)acetic acid], the IC50 was below 100 nM.

As for `Cn1nnc(-c2ccc(N3CCC[C@H](CC(=O)O)C3)c(C(F)F)n2)c1Cn1nncc1CC1CC1` [Example 168, (R)-2-(1-(6-(5-((5-(cyclopropylmethyl)-1H-1,2,3-triazol-1-yl)methyl)-1-methyl-1H-1,2,3-triazol-4-yl)-2-(difluoromethyl)pyridin-3-yl)piperidin-3-yl)acetic acid], the IC50 is below 100 nM.

As to `Cn1nnc(-c2ccc(N3CCC[C@H](CC(=O)O)C3)c(C(F)F)n2)c1Cn1cc(CC2CC2)nn1` [Example 169, (R)-2-(1-(6-(5-((4-(cyclopropylmethyl)-1H-1,2,3-triazol-1-yl)methyl)-1-methyl-1H-1,2,3-triazol-4-yl)-2-(difluoromethyl)pyridin-3-yl)piperidin-3-yl)acetic acid], the IC50 was in the range of 100 to 500 nM.

In the case of `CCCN(C)C(=O)OCc1c(-c2ccc(N3CCOC(CC(=O)O)C3)c(CC)n2)nnn1C` (stereo not drawn) [Example 170, 2-(4-(2-ethyl-6-(1-methyl-5-(((methyl(propyl)carbamoyl)oxy)methyl)-1H-1,2,3-triazol-4-yl)pyridin-3-yl)morpholin-2-yl)acetic acid], the IC50 fell in the range of 500 to 5000 nM.

Regarding `CCc1nc(-c2nnn(C)c2COc2nccc(C3CCC3)n2)ccc1N1CCOC(CC(=O)O)C1` (stereo not drawn) [Example 171, 2-(4-(6-(5-(((4-cyclobutylpyrimidin-2-yl)oxy)methyl)-1-methyl-1H-1,2,3-triazol-4-yl)-2-ethylpyridin-3-yl)morpholin-2-yl)acetic acid], the IC50 was below 100 nM.

`CCCc1ccc(=O)n(Cc2c(-c3ccc(N4CCO[C@H](CC(=O)O)C4)c(CC)n3)nnn2C)c1` [Example 172, 2-[(2R)-4-(2-ethyl-6-{1-methyl-5-[(2-oxo-5-propyl-1,2-dihydropyridin-1-yl)methyl]-1H-1,2,3-triazol-4-yl}pyridin-3-yl)morpholin-2-yl]acetic acid]: the IC50 fell in the range of 500 to 5000 nM.
